Laboratory results from patent US20240239788A1, “SMALL MOLECULE INHIBITORS OF KRAS G12D MUTANT” (Merck Sharp & Dohme LLC, priority 2021, published 2024).
Like-named read-outs stand apart in the source and are kept apart here.

Assays:
[1] = target: KRAS G12D / Ras binding domain of C-RAF (Homo sapiens (Human), UniProt P01116, G12D); assay: RAS:RAF-RBD binding assay (cRaf), TR-FRET; conditions: biotinylated KRAS G12D, GST-C-RAF RBD
Method: Compounds are added to KRAS and then after a 30-minute incubation time the RAF-RBD and detection antibodies are added. Small molecule inhibitors that block the interaction of c-RAF-RBD prevent generation of a TR-FRET signal.
Biotinylated KRAS G12D protein is diluted to 20 nM in assay buffer (20 mM HEPES pH 7.5, 150 mM sodium chloride, 10 mM magnesium chloride, and 0.01% Tween20).
Each test compound (10 mM stock in DMSO) is diluted in DMSO to make a 10-point, 3-fold dilution series in a 384-well low dead volume microplate (Labcyte, catalog #LP-0200).
Each well of the assay plate receives 5 μL of Biotinylated KRAS G12D assay solution and is incubated at room temperature for 30 minutes. Each well then receives 5 μL of 100 nM GST-C-RAF RBD protein and a 1:100 dilution of both anti-GST-d2 (Cisbio catalog #61GSTDLA) and Streptavidin-Tb cryptate (Cisbio catalog #610SATLA) in assay buffer and the plate is mixed and briefly centrifuged followed by a 60 minute incubation at room temperature.
The apparent effect as a function of compound concentration is fit to a four-parameter logistic equation.

[2] = tested on: AsPC-1 cells containing homozygous KRAS-G12D activating mutation; assay: Cellular phospho-ERK assay (Examples 1a-106); assay type: cell-based; conditions: AsPC-1 cells, 2 hours, ratio of p-Erk vs total Erk, read-out: IC50 (nM) pERK (Cell)
Source text: 5% CO? overnight. […] Assay plates were read on a EnVision Multimode Plate Reader (PerkinElmer) and the ratio of p-Erk vs total Erk in each well was used as the final readout.

[3] = target: KRAS protein containing G12D mutation (Homo sapiens (Human), UniProt P01116, G12D); assay: SOS-catalyzed nucleotide exchange assay (GNE), TR-FRET; assay type: biochemical; conditions: biotinylated KRAS G12D, SOS and GTP, 60-minute incubation
KRAS protein containing G12D mutation, sequence (P01116 other isoform, or with tags, fused parts or gaps G12D (already in the parent)): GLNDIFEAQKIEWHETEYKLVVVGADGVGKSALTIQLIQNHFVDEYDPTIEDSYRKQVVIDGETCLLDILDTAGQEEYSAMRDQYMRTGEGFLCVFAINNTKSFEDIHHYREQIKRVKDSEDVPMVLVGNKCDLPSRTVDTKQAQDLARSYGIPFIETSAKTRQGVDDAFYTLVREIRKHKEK
Method: Compounds are added to this complex and then after a 60-minute incubation time the mixture is treated with SOS and unlabeled GTP. Small molecule inhibitors stabilize the Bodipy-GDP complex whereas the untreated protein rapidly exchanges Bodipy-GDP for unlabeled GTP resulting in reduced TR-FRET signal.
This solution is referred to as biotinylated KRAS G12D stock solution.

KRAS G12D / Ras binding domain of C-RAF, sequence (P01116 other isoform, or with tags, fused parts or gaps G12D (already in the parent)): as above

Compound	IC50 ([1]; IC50 (nM) (cRaf))	IC50 ([2]; Homo sapiens, ASPC1, 2 h) [nM]	IC50 [3] [nM]	IC50 ([1]; read-out: IC50 (nM) (cRaf))	IC50 [2] [nM]
COC1CC2CN(c3nc(OCC4(CN(C)C)CC4)nc4c(F)c(-c5cc(O)cc6ccccc56)c(Cl)cc34)CC1N2 [Example 26, 4-(6-chloro-2-((1-((dimethylamino)meth-yl)cyclo-propyl)methoxy)-8-fluoro-4-(R,R,6-methoxy-3,8-diazabi-cyclo[3.2.1]octan-3-yl)quinazolin-7-yl)naphthalen-2-ol]	11800	10400	358		
CN(C)CC1(COc2nc(N3CC4(C)CCC(C)(C3)N4)c3cc(F)c(-c4cc(O)cc5ccccc45)c(F)c3n2)CC1 [Example 32, 4-(4-(1,5-dimethyl-3,8-diazabicy-clo[3.2.1]octan-3-yl)-2-((1-((dimethyl-amino)methyl)cyclo-propyl)methoxy)-6,8-difluoroquinazolin-7-yl)naphthalen-2-ol]	1430	2260	64.2		
CCC12CCC(CN(c3nc(OCC4(CN(C)C)CC4)nc4c(F)c(-c5cc(O)cc6ccccc56)c(F)cc34)C1)N2 (stereo not drawn) [Example 33, 4-(2-((1-((dimethylamino)meth-yl)cyclopro-pyl)methoxy)-4-(1-ethyl-3,8-diazabicy-clo[3.2.1]octan-3-yl)-6,8-difluoroquinazolin-7-yl)naphthalen-2-ol]	5070	3450	88.5		
CN(C)CC1(COc2nc(N3CC4CCC(F)(C3)N4)c3cc(Cl)c(-c4cc(O)cc5ccccc45)c(F)c3n2)CC1 (stereo not drawn) [Example 34, 4-(6-chloro-2-((1-((dimethylamino)meth-yl)cyclopropyl)meth-oxy)-8-fluoro-4-(1-fluoro-3,8-diaza-bicyclo[3.2.1]octan-3-yl)quinaozlin-7-yl)naphthalen-2-ol]	38300	11500	2560		
CN(C)CC1(COc2nc(N3CC4CC[C@@](C)(C3)N4)c3cc(Cl)c(-c4cc(O)cc5ccccc45)c(F)c3n2)CC1 [Example 35, 4-(6-chloro-2-((1-((dimethylamino)meth-yl)cyclopro-pyl)methoxy)-8-fluoro-4-((1S,5R)-1-methyl-3,8-diaza-bicyclo[3.2.1]octan-3-yl)quinazolin-7-yl)naphthalen-2-ol]	1890	2260	27.3		
CN(C)CC1(COc2nc(N3CC4CCC(CC#N)(C3)N4)c3cc(Cl)c(-c4cc(O)cc5ccccc45)c(F)c3n2)CC1 (stereo not drawn) [Example 36, 2-(3-(6-chloro-2-((1-((dimethylamino)meth-yl)cyclopro-pyl)methoxy)-8-fluoro-7-(3-hydroxy-naphthalen-1-yl)quinazolin-4-yl)-3,8-diazabicyclo[3.2.1]oc-tan-1-yl)acetonitrile]	50000	46400	4680		
CC[C@H]1N[C@H]2CC[C@@H]1N(c1nc(OCC3(CN(C)C)CC3)nc3c(F)c(-c4cc(O)cc5ccccc45)c(Cl)cc13)C2 [Example 39, 4-(6-chloro-2-((1-((dimethylamino)methyl)cyclopropyl)methoxy)-4-((1S,4S,6R)-6-ethyl-2,5-diazabicyclo[2.2.2]octan-2-yl)-8-fluoroquinazolin-7-yl)naphthalen-2-ol]	4670	3310	46.7		
CN(C)CC1(COc2nc(N3CC4CCC(C3)N4)c3cc(Cl)c(-c4cc(O)ccc4[Si](C)(C)C)c(F)c3n2)CC1 [Example 45, 3-(4-(3,8-diazabicyclo[3.2.1]octan-3-yl)-6-chloro-2-((1-((dimethylamino)methyl)cyclopropyl)methoxy)-8-fluoroquinazolin-7-yl)-4-(trimethylsilyl)phenol]	31600	5470	376		
Cc1cc(O)cc(-c2c(F)cc3c(N4CC5CCC(C4)N5)nc(OCC4(CN5CCOCC5)CC4)nc3c2F)c1SC(F)(F)F [Example 49, 3-(4-(3,8-diazabicyclo[3.2.1]octan-3-yl)-6,8-difluoro-2-((1-(morpholinomethyl)cyclopropyl)methoxy)quinazolin-7-yl)-5-methyl-4-((trifluoromethyl)thio)phenol]	24700	4990	184		
Nc1ccc2c(F)ccc(-c3c(Cl)cc4c(N5CC6CCC(C5)N6)nc(OCC5(CN6CCOCC6)CC5)nc4c3F)c2n1 [Example 52, 8-(4-(3,8-diazabicyclo[3.2.1]octan-3-yl)-6-chloro-8-fluoro-2-((1-(morpholinomethyl)cyclopropyl)methoxy)quinazolin-7-yl)-5-fluoroquinolin-2-amine]	3820	2560	132		
CN(C)CC1(COc2nc(N3CC4CCC(C3)N4)c3cc(Cl)c(-c4cc(O)c(F)c5ccccc45)c(F)c3n2)CC1 [Example 57, 4-(4-(3,8-diazabicyclo[3.2.1]octan-3-yl)-6-chloro-2-((1-((dimethylamino)methyl)cyclopropyl)methoxy)-8-fluoroquinazolin-7-yl)-1-fluoronaphthalen-2-ol]	31500	6850	404		
Cc1c(Cl)cc2[nH]ncc2c1-c1c(F)cc2c(N3CC4CCC(C3)N4)nc(OCC3(CN(C)C)CC3)nc2c1F [Example 58, 1-(1-(((4-(3,8-diazabicyclo[3.2.1]octan-3-yl)-7-(6-chloro-5-methyl-1H-indazol-4-yl)-6,8-difluoroquinazolin-2-yl)oxy)methyl)cyclopropyl)-N,N-dimethylmethanamine]	45300	5900	256		
Nc1nc2c(-c3c(F)cc4c(N5CC6CCC(C5)N6)nc(OCC5(CN6CC[C@@H](F)C6)CC5)nc4c3F)ccc(F)c2s1 [Example 61]	3350	7580	38.7		
Nc1nc2c(-c3c(Cl)cc4c(N5CC6CCC(C5)N6)nc(OCC5(CN6CCOCC6)CC5)nc4c3F)ccc(F)c2s1 [Example 62, 4-(4-(3,8-diazabicyclo[3.2.1]octan-3-yl)-6-chloro-8-fluoro-2-((1-(morpholinomethyl)cyclopropyl)methoxy)quinazolin-7-yl)-7-fluorobenzo[d]thiazol-2-amine]	334	1860	3.83		
Cc1cc2[nH]ncc2c(-c2c(F)cc3c(N4C[C@H]5CC[C@@H](C4)N5)nc(OCC4(CN(C)C)CC4)nc3c2F)c1Cl [Example 65, 1-(1-(((4-((1R,5S)-3,8-diazabicyclo[3.2.1]octan-3-yl)-7-(5-chloro-6-methyl-1H-indazol-4-yl)-6,8-difluoroquinazolin-2-yl)oxy)methyl)cyclopropyl)-N,N-dimethylmethanamine]	45700	2840	272		
Cc1cc2[nH]ncc2c(-c2c(F)cc3c(N4C[C@H]5CC[C@@](C)(C4)N5)nc(OC[C@@H]4C[C@@H](F)CN4C)nc3c2F)c1C(F)(F)F [Example 67, 6,8-difluoro-2-(((2S,4R)-4-fluoro-1-methylpyrrolidin-2-yl)methoxy)-7-(6-methyl-5-(trifluoromethyl)-H-indazol-4-yl)-4-((1S,5R)-1-methyl-3,8-diazabicyclo[3.2.1]octan-3-yl)quinazoline]	4040	2860	173		
C[C@@]12CC(O)[C@@](C)(CN(c3nc(OC[C@@]45CCCN4C[C@H](F)C5)nc4c(F)c(-c5cc(O)cc6cccc(Cl)c56)c(F)cc34)C1)N2 (stereo partly drawn) [Example 106]			2.09	49.4	76.1
C[C@@]12CC[C@@H](CN(c3nc(OCC4(CN5CC[C@@H](F)C5)CC4)nc4c3CCN(c3cccc5cccc(Br)c35)C4)C1)N2 [compound 94, 7-(8-bromonaphthalen-1-yl)-2-((1-(((R)-3-fluoropyrroli-din-1-yl)methyl)cyclopropyl)methoxy)-4-((1S,5R)-1-methyl-3,8-diazabicyclo[3.2.1]octan-3-yl)-5,6,7,8-tetrahydropyrido[3,4-d]pyrimidine]	32900	8470	116		
C#Cc1cccc2cc(O)cc(-c3c(F)cc4c(N5C[C@]6(C)CC[C@H]5CN6)nc(OC[C@@]56CCCN5C[C@H](F)C6)nc4c3F)c12 [compound 104, 4-(6,8-difluoro-2-(((2R,7aS)-2-fluorotetrahydro-1H-pyrrolizin-7a(5H)-yl)methoxy)-4-((1S,4S)-4-methyl-2,5-diazabicyclo[2.2.2]octan-2-yl)quinazolin-7-yl)-5-ethynylnaphthalen-2-ol]	5.93	11.8	1.05		
